Like-named read-outs stand apart in the source and are kept apart here.
Assays:
SARS-CoV-2 M^pro = SARS-CoV-2 M^pro (Severe acute respiratory syndrome coronavirus 2 (2019-nCoV) (SARS-CoV-2), UniProt P0DTD1); test: biochemical; settings: 20 nM M^pro, 10 uM substrate, 1 hr, HPLC product peak area; read-out: IC50 against SARS-CoV-2 M^pro, HPLC-confirmed
[1] = target: SARS-CoV-2 M^pro protease (Severe acute respiratory syndrome coronavirus 2 (2019-nCoV) (SARS-CoV-2), UniProt P0DTD1); test: Fluorogenic enzymatic assay, SARS-CoV-2 Mpro inhibition; assay type: biochemical; settings: quenched DABCYL/EDANS peptide substrate
cathepsin L = cathepsin L (Homo sapiens (Human), UniProt P07711); test: Cathepsin L inhibition assay (Z-LR-AMC fluorogenic substrate); assay type: biochemical
Protocol: Assays to evaluate the inhibition of cathepsin L contained 25 pM cathepsin L (RD systems: 952-CY-010), 5 uM Z-LR-AMC fluorogenic peptide substrate, 100 nL of test compound in 100% DMSO, in a total of 10 uL of 20 mM KPO4, pH 6.0, 150 mM NaCl, 0.005% Tween20, 5 mM DTT in black low volume 384-well plates. The production of AMC (7-amino-4-methylcoumarin) was followed at 5 min intervals at 355 nm excitation, 460 nm emission in an Envision microplate reader (PerkinElmer). Reaction rates were determined by linear regression of the resulting progress curves. Rates were normalized to % inhibition, where 0% is equal to the rate in the presence of enzyme, and 100% is equal to the rate in the absence of enzyme. Nonlinear regression fits of the data to a one-site dose response curve were performed using XLFit (IDBS). […]

[2] = 25 pM cathepsin L, 5 uM Z-LR-AMC, pH 6.0, read-out: IC50 Cathepsin L

Sequence of cathepsin L (P07711 114-333): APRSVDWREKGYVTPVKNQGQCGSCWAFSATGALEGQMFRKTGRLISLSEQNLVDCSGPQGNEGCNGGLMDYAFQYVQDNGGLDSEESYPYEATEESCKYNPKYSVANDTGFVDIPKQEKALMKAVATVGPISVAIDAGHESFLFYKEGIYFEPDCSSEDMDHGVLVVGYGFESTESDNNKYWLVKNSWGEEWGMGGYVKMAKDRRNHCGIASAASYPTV

O=C(NCC(NC(=O)C1COc2ccccc21)c1ccccc1)c1cccc2cnsc12 (stereo not drawn) [(106)]
IC50 (SARS-CoV-2 M^pro): 28 µM
IC50 [1]: 8.9 µM
IC50 (cathepsin L; [2]): 10.2 µM

O=C(NCC(NC(=O)c1cncc2[nH]ccc12)c1ccc2ccccc2c1)c1ccsc1 (stereo not drawn) [(107)]
IC50 [1]: 19.2 µM

Cc1cc[nH]c(=O)c1C(=O)NC[C@H](NC(=O)c1cncc2ccccc12)c1ccc2ccccc2c1 (single isomer, unassigned) [(103)]
IC50 [1]: 71.2 µM
IC50 (cathepsin L; [2]): 36.8 µM

CC(C)C[C@H](NC(=O)OCc1ccccc1)C(=O)N[C@@H](CC1CCNC1=O)C(O)S(=O)(=O)O (stereo partly drawn) [GC-376, reference compound]
IC50 (cathepsin L; positive control tested in parallel, read-out: IC50 cathepsin L (positive control)): 0.002 µM

Cc1cc[nH]c(=O)c1C(=O)NC[C@H](NC(=O)c1cncc2ccccc12)c1ccc2ccccc2c1 (single isomer, unassigned) [(102)]
IC50 [1]: 1.6 µM
IC50 (cathepsin L; [2]): 47.8 µM

CC(=O)c1c(C)[nH]c(C(=O)N[C@H](CNC(=O)c2ccc(F)c3ccccc23)c2ccccc2)c1C [(108), (S)-4-acetyl-N-(2-(4-fluoro-1-naphthamido)-1-phenylethyl)-3,5-dimethyl-1H-pyrrole-2-carboxamide]
IC50 [1]: 32.2 µM

Cc1cc[nH]c(=O)c1C(=O)NCC(NC(=O)c1cncc2ccccc12)c1ccc2ccccc2c1 (racemic) [(101), N-{2-[(2-hydroxy-4-methylpyridin-3-yl)formamido]-1-(naphthalen-2-yl)ethyl}isoquinoline-4-carboxamide]
IC50 (SARS-CoV-2 M^pro): 5.4 µM
IC50 [1]: 1.7 µM
IC50 (cathepsin L; [2]): > 100 µM

Cc1cc(C(=O)NC(CNC(=O)c2cccc3sncc23)c2ccc3ccccc3c2)cc(=O)[nH]1 (stereo not drawn) [(104)]
IC50 [1]: 47.8 µM

O=C(NCC(NC(=O)c1cncc2sccc12)c1ccc2ccccc2c1)c1cc(O)cc(O)c1 (stereo not drawn) [(105)]
IC50 [1]: 61.3 µM
